Experimental data taken from publication PMC9775191, “A Subset Screen of the Compounds Australia Scaffold Library Identifies 7-Acylaminodibenzoxazepinones as Potent and Selective Hits for Anti-Giardia Drug Discovery” (Biomedicines, 2022).

Test system: G. duodenalis BRIS/91/HEPU/1279
Assay: Primary Giardia screen at 10 µM (live-cell imaging, automated counting)
Type: cell-based, Giardia duodenalis
Settings: for % Inhibition n=1 48h / % Inhibition n=1 24h: first singlicate assay; for % Inhibition n=2 24h / % Inhibition n=2 48h: re-assessment
Procedure, shortened: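 One concentration, 10 μM, is screened per compound in singlicate under microaerophilic gas (3% O2, 5% CO2, N2). Inhibition comes from automated image-based counts at 24 and 48 h, relative to 0.2% DMSO controls.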

SMILES | % Inhibition n=1 48h [%] | further results
Cc1ccc2c(=O)c(C(=O)N3CCSCC3)c[nH]c2n1 [SN00784417] | 11.0 | 
Cc1ccc(S(=O)(=O)N2CCCN(C(=O)c3c[nH]nc3-c3ccc(F)cc3)CC2)cc1 [SN00778123] | 40.4 | 
Cc1cnc(CN2CCOC(CNc3cccnn3)C2)o1 (stereo not shown) [SN00775722] | 13.5 | 
COc1ccc(-c2cc(C(=O)N(C)Cc3ccco3)[nH]n2)cc1 [SN00788220] | 44.3 | 
CNC(=O)N1C[C@@H](CN(C)C)[C@@H](C2CCN(CCC(C)C)CC2)C1 (relative stereo) [SN00801505] | 0.0 | 
COc1ccc(-n2nc(C(=O)NCc3ccc(C)cc3)c3c4ccccc4n(C)c3c2=O)cc1 [SN00785076] | 5.1 | 
Cc1sc2cc(-c3ccccc3)oc2c1C(=O)NCc1ccccc1 [SN00796296] | 20.2 | 
COc1ccc(S(=O)(=O)N2CCN(c3cc(=O)n4nc(-c5ccccc5C)sc4n3)CC2)cc1 [SN00789606] | 10.6 | 
Cc1cccc(CN2CCC3(CC2)N=C(c2ccc(C)c(C)c2)C(=O)N3)c1 [SN00792562] | 12.3 | 
O=C(c1ccc[nH]c1=S)N1CCCC(CN2CCN(c3ccccn3)CC2)C1 (stereo not shown) [SN00780166] | 0.0 | 
CC1CC(C)CN(C(=O)Cn2cnc3c(nc4n3CCCCC4)c2=O)C1 (stereo not shown) [SN00788055] | 0.0 | 
CCCCN(CCCNC(=O)c1c(C)oc2nc[nH]c(=O)c12)Cc1ccccc1 [SN00784186] | 16.8 | 
Cn1ncc2c(NC3CCN(Cc4ccncc4)CC3)ncnc21 [SN00771916] | 0.0 | 
O=C(Nc1ccccc1)NC(c1ccccc1)c1nnc(-c2ccccc2Cl)o1 (stereo not shown) [SN00784775] | 0.0 | 
COc1ccc(-n2nc3c(c2NC(=O)c2ccc([N+](=O)[O-])cc2)CS(=O)(=O)C3)cc1 [SN00802781] | 12.4 | 
Cc1ccccc1-c1noc(Cn2c(-c3ccccn3)noc2=O)n1 [SN00781291] | 0.0 | 
CN(CCc1ccccn1)C(=O)c1cc2nc(-c3ccc(Cl)cc3)cc(C(F)(F)F)n2n1 [SN00784121] | 0.0 | 
Cc1ccccc1NC(=O)c1ccc2c(c1)CCN2S(C)(=O)=O [SN00785973] | 31.2 | 
Cc1ccccc1NC(=O)c1c(C)oc2ncnc(N3CCCCC3)c12 [SN00788425] | 15.9 | 
CC(C(=O)NC1CCCCCC1)n1c(=O)c2cccn2c2cccnc21 (stereo not shown) [SN00787599] | 8.7 | 
O=[N+]([O-])c1ccccc1Sc1nnnn1C1CCOCC1 [SN00782002] | 15.2 | Average % Inhibition 24h: 6.2%; % Inhibition n=1 24h: 12.3%; % Inhibition n=2 24h: 0.0%; Average % Inhibition 48h: 8.6%; % Inhibition n=2 48h: 2.0%
CC(c1nnc(-c2cccs2)o1)N1CCc2cncnc2C1 (stereo not shown) [SN00783267] | 12.9 | 
O=C(Nc1nnc(S(=O)(=O)N2CCc3ccccc32)s1)c1ccccc1 [SN00787260] | 37.8 | 
CCc1ccc(NC(=O)Cn2nc3n(c2=O)CCCC3)cc1 [SN00801641] | 9.1 | 
Cc1c(C(=O)NCCCN2CCOCC2)oc2c1-c1nn(Cc3ccc(Cl)cc3)cc1CC2 [SN00787421] | 1.0 | 

SMILES | % Inhibition n=1 48h [%] | further results
CC1CCCCN1S(=O)(=O)c1ccc(NC(=O)c2cc(-c3cccs3)on2)cc1 (stereo not shown) [SN00786280] | 10.1 | 
CCc1ccccc1Nc1nc(N)nc(CN2CCCN(S(=O)(=O)c3ccc(C)cc3)CC2)n1 [SN00771296] | 10.0 | 
CCOC(=O)c1sc(N2C(=O)C(O)=C(C(=O)c3ccco3)C2c2ccc(OC)cc2)nc1C (stereo not shown) [SN00776656] | 6.9 | 
Cn1cc2c3c(cccc31)CN(C(=O)NC(C)(C)C)CC2 [SN00798578] | 7.2 | 
O=C(C1CC(=O)N(c2cccc(-c3noc(C4CCC4)n3)c2)C1)N1CCN(c2ccccc2F)CC1 (stereo not shown) [SN00789791] | 5.7 | 
O=[N+]([O-])c1ncn(Cc2nc(-c3ccc(C(F)(F)F)cc3)no2)n1 [SN00779286] | 16.5 | 
CCc1nccn1CC1CCCN1 (stereo not shown) [SN00772783] | 0.0 | 
O=C(C1CC1)N1CCCCCC1C1CCN(c2nccc(C(F)(F)F)n2)CC1 (stereo not shown) [SN00773266] | 15.0 | 
CCS(=O)(=O)c1nc2ccc(NS(=O)(=O)c3ccc4c(c3)OCCO4)cc2s1 [SN00797922] | 0.0 | 
Cc1nc2sccn2c1-c1nc(-c2cccc3ccccc23)cs1 [SN00776128] | 37.4 | 
CCCn1c(C2CCN(C(=O)Nc3ccc(F)cc3)CC2)cc(=O)n2nccc12 [SN00798971] | 19.1 | 
Cc1nc(C2CCN(CC(=O)NC(c3ccc(F)cc3)c3cccs3)CC2)n[nH]1 (stereo not shown) [SN00772581] | 24.6 | 
CSc1cccc(NC(=O)CN2C(=O)C(C)N=C(c3ccccc3)c3ccccc32)c1 (stereo not shown) [SN00784896] | 0.0 | 
Cc1nn(Cc2ccccc2)c2sc(C(=O)N3CCN(C(=O)N4CCCCC4)CC3)cc12 [SN00774391] | 14.0 | 
Nc1cc(C2CCNCC2)[nH]n1 [SN00781241] | 7.2 | 
CN(C)c1ccc(NC(=O)C2=NN(Cc3ccc(F)cc3)C(=O)CC2)cc1 [SN00779392] | 8.0 | 
COc1ccc(CC(=O)NC2CCN(c3nc4c(s3)c(C)nn4-c3cccc(C)c3)CC2)cc1 [SN00803147] | 1.5 | 
CCOc1ccccc1N1C(=O)C(=O)N(Cc2nc(C)no2)C1=O [SN00774186] | 14.0 | 
Cc1cc(-c2csc(S(=O)(=O)Nc3ccc(Cl)c(C(F)(F)F)c3)c2)on1 [SN00797257] | 0.0 | 
CCc1nnsc1C(=O)N1CCCN(Cc2ccccc2F)CC1 [SN00782451] | 0.0 | 
Cc1scc2nc(C(N)=O)nc(N3CCCC3)c12 [SN00801956] | 22.6 | 
COc1ccc(Cl)cc1-n1nnc(-c2nsc(NC(=O)c3ccccc3)n2)c1C [SN00791316] | 20.0 | 
Cc1cccc(NC(=O)N2CCN(c3cc(C)nc(N4CCCC4)n3)CC2)c1 [SN00786874] | 49.3 | Average % Inhibition 24h: 3.5%; % Inhibition n=1 24h: 7.1%; % Inhibition n=2 24h: 0.0%; Average % Inhibition 48h: 39.9%; % Inhibition n=2 48h: 30.5%
CCOC(=O)c1ccccc1NC(=O)NC(c1ccccc1)c1nnc(-c2ccccc2)o1 (stereo not shown) [SN00792113] | 0.0 | 
Cc1ccc(NC(=O)Cn2c(=O)nc(NC3CCCC3)c3ccccc32)cc1C [SN00797075] | 0.0 | 

SMILES | % Inhibition n=1 48h [%] | further results
Cc1ccc(-n2nc(C)c3sc(N4CCCC(C(=O)NCc5ccc6c(c5)OCO6)C4)nc32)cc1 (stereo not shown) [SN00796247] | 0.0 | 
CC(=O)Nc1nsc(N2CCCC(C(=O)NCc3ccccc3Cl)C2)n1 (stereo not shown) [SN00800180] | 5.9 | 
O=S1(=O)C[C@H](NCc2ccccn2)[C@@H](S(=O)(=O)c2ccccc2)C1 [SN00786609] | 0.0 | 
Cc1sc(C(=O)N2CCCC2)c2ncnc(NCc3cccc(Cl)c3)c12 [SN00803183] | 47.9 | Average % Inhibition 24h: 15.6%; % Inhibition n=1 24h: 29.7%; % Inhibition n=2 24h: 1.5%; Average % Inhibition 48h: 27.6%; % Inhibition n=2 48h: 7.3%
O=C1CCCc2cc(S(=O)(=O)N3CCN(c4ccccc4)CC3)ccc2N1 [SN00788529] | 19.1 | 
Cc1ccccc1NC(=O)c1nc(S(C)(=O)=O)ncc1N(Cc1ccco1)Cc1sccc1C [SN00786086] | 11.7 | 
COc1cc(-c2c(Nc3ccccc3)oc3c2c(=O)n(C)c(=O)n3C)cc(OC)c1OC [SN00788648] | 0.0 | 
COc1ccc(-c2nc(Cn3nnc(C(=O)Nc4ccc(F)cc4F)c3N)c(C)o2)c(OC)c1 [SN00797364] | 3.5 | 
COc1ccc(CCNC(=O)C2c3ccccc3C(=O)N2Cc2ccc(C)cc2)cc1OC (stereo not shown) [SN00794542] | 6.3 | 
COc1cccc(-n2ccn3cc(-c4ccc(OC)c(OC)c4)nc3c2=O)c1 [SN00796018] | 36.9 | 
COc1ccc(S(=O)(=O)N2CCN(C(=O)c3cc(C)n(C(C)C)c3C)CC2)cc1OC [SN00774751] | 14.4 | 
C=CCn1c(SCC(=O)N2CCCCC2)nc2scc(-c3ccco3)c2c1=O [SN00773666] | 5.6 | 
CC(=O)Nc1cc(NC(=O)c2cc(-c3ccccc3)nc3c2cnn3Cc2cccnc2)ccc1F [SN00776945] | 50.1 | Average % Inhibition 24h: 0.0%; % Inhibition n=1 24h: 0.0%; % Inhibition n=2 24h: 0.0%; Average % Inhibition 48h: 25.1%; % Inhibition n=2 48h: 0.0%
O=C(c1csc(-c2ccncc2)n1)N1CCN(c2ccccc2)CC1 [SN00794830] | 15.8 | 
COc1ccc(-c2cnc(C)o2)cc1S(=O)(=O)Nc1ccc(C)cc1 [SN00792030] | 22.0 | 
CC1(C)Cc2nc3[nH]c(=O)n(Cc4ccco4)c(=O)c3cc2CO1 [SN00786536] | 7.3 | 
Cc1ccc(CNC(=O)Cn2c(C)cc(C)c(-c3nc(-c4ccccc4)no3)c2=O)cc1 [SN00792891] | 0.0 | 
CCN(c1ccc(OC)cc1)S(=O)(=O)c1csc(C(=O)N(C)C)c1 [SN00791689] | 2.7 | 
CN1CCN(CCNC(=O)CN2C(=O)C3CCCCN3c3ccc(C(=O)N4CCCC4)cc32)CC1 (stereo not shown) [SN00792767] | 13.0 | 
O=C(Nc1ccc(F)cc1)c1nc2nc(-c3cccs3)cc(C(F)(F)F)n2n1 [SN00794266] | 18.7 | 
Cc1ccc(NS(=O)(=O)c2cn(C)c(C)n2)c(Br)c1 [SN00792660] | 25.8 | 
CC1(C(=O)NC2CCCCCCC2)CN(S(C)(=O)=O)CC(=O)N1c1ccc(F)cc1 (stereo not shown) [SN00787900] | 11.9 | 
CCc1noc(C)c1C(=O)N1CCCN(Cc2csc(C)n2)CC1 [SN00778114] | 29.4 | 
Cc1cc(=O)n2nc(N(C)CC(=O)NC3CCCc4ccccc43)sc2n1 (stereo not shown) [SN00785631] | 35.0 | 
